Experimental data from patent US6599931B1, “Test system for characterizing the compatibility of bioactive substances and polyvinylpyrrolidone” (Abbott GmbH & Co. KG, priority 1998, dated 2003).

Tests used:
[1] = Dissolving and recrystallization behavior of active ingredient in 1,3-bis(1-pyrrolidonyl)butane (DHVP) test system; settings: for RT: solution in DHVP: room temperature; for Sol. at (temperature at which solution forms): heated; for solubility in DHVP: comparison
From the text: The ratios of the amounts can in principle be chosen without restriction and naturally depend essentially on the properties of the active ingredient. However, it is advisable to choose the concentration ranges in the test system so that they correspond to active ingredient contents typical of extruded forms, that is to say generally from 0.1 to 70, preferably 10 to 30% by weight of active ingredient, based on the total weight of the test system. However, it is also possible in the individual case to prepare solutions or dispersions with a concentration of 60% by weight or even higher. It is preferred to carry out test series with increasing active ingredient contents. The active ingredient(s) are weighed out, mixed with the appropriate amounts of DHVP and preferably stirred, normally with a typical laboratory magnetic stirrer at 5 to 200 rpm. […] The heating is preferably carried out so as to correspond approximately to the heating rate in a subsequent melt formulation, that is to say at 0.5 to 5° C./min. The test system is preferably heated to a maximum of 140° C. However, it is also possible in the individual case to heat to the boiling point of DHVP. The test system is then allowed to cool to room temperature.
The prepared test systems are assessed spectroscopically. […] The recrystallization behavior is also assessed. The recrystallization behavior immediately after cooling to room temperature is an important criterion especially for test systems in which the active ingredient has been induced to dissolve by heating.
leaving to stand at room temperature for 24 hours
Investigation is always of whether the active ingredient has recrystallized out of the solution.

[2] = Melt extrudate with PVP K 30: formation of solid solution; type: physicochemical; settings: for Extrudate: solution (solid): 30% by weight in PVP, melt extrudate with PVP K 30; for solid solution with PVP: comparison
[3] = Solubility in DMSO (comparison)

Structure (SMILES) | Recryst. (recrystallization) ([1]; 10% by weight in DHVP) | RT: solution in DHVP ([1]; 10% by weight in DHVP) | Recryst. after (time to recrystallization) ([1]; 30% by weight in DHVP) [h] | Sol. at (temperature at which solution forms) ([1]; 30% by weight in DHVP) | RT: solution in DHVP ([1]; 30% by weight in DHVP) | Extrudate: solution (solid) [2] | Sol. at (temperature at which solution forms) ([1]; 10% by weight in DHVP) | Recryst. (recrystallization) ([1]; 30% by weight in DHVP) | solubility in DHVP [1] | solid solution with PVP [2] | solubility in DMSO (dimethyl sulfoxide) [3]
CCS(=O)(=O)Oc1ccc2c(C)c(C)c(=O)oc2c1 [Esuprone] | Recryst.: − | RT: + | 20 | Sol. at 70 °C | RT: − | + |  |  |  |  | 
COc1ccc(CCN(C)CCCC(C#N)(c2cc(OC)c(OC)c(OC)c2)C(C)C)cc1OC.Cl (stereo not shown) [Gallopamil HCl] | Recryst.: − | RT: + | 96 | Sol. at 60 °C | RT: − | + | Sol. at 60 °C |  |  |  | 
CC(C)Cc1ccc(C(C)C(=O)O)cc1 (stereo not shown) [Ibuprofen] | Recryst.: − | RT: + |  |  | RT: + | + |  | Recryst.: − | soluble | solid solution | soluble
CC(=O)Nc1ccc(O)cc1 [Paracetamol] | Recryst.: − | RT: − |  | Sol. at 90 °C | RT: − | + | Sol. at 90 °C | Recryst.: − |  |  | 
Cn1c(=O)c2[nH]cnc2n(C)c1=O [Theophylline] |  |  |  |  |  |  |  |  | insoluble | no solid solution | soluble
CN(C)CCOC1=Cc2ccccc2Sc2ccc(Cl)cc21 [Zotepine] | Recryst.: − | RT: + | 40 | Sol. at 70 °C | RT: − | + |  |  |  |  | 
